# Data from article PMC8008425, “Shedding X-ray Light on the Role of Magnesium in the Activity of Mycobacterium tuberculosis Salicylate Synthase (MbtI) for Drug Design” (Journal of Medicinal Chemistry, 2020).
# Where “and” joins values, the source holds several entries; their conditions need not be identical. Equal values may be shown once. Read-outs that look alike come from different tables or passages of the source.
# Key:
# recombinant MbtI [1] = biological target: T1, recombinant MbtI (Mycobacterium tuberculosis, UniProt P9WFX1); assay: MbtI enzymatic (fluorimetric) inhibition assay; format: biochemical; conditions: for remaining activity at 100 µM: residual enzymatic activity at 100 μM ligand concentration, 50 μM chorismic acid
# M. tuberculosis H37Rv [2] = system: M. tuberculosis H37Rv; parameters: method as in PMID 29940465, PMID 30889995; conditions: Mtb cultures; cited from earlier work
# recombinant MbtI [3] = biological target: T1, recombinant MbtI; conditions: cited from earlier work
# M. tuberculosis H37Rv [4] = assay: MIC99 determination on Middlebrook 7H11 agar solid medium; format: cell-based; conditions: Mycobacterium tuberculosis
# M. bovis BCG [5] = format: cell-based, Mycobacterium bovis; conditions: M. bovis BCG cultures grown at different concentrations of compound, chelated Sauton's medium
# in vitro = conditions: human
# M. bovis BCG [6] = assay: microbe, parasite or virus in culture; format: cell-based; conditions: Mycobacterium tuberculosis variant bovis BCG
# [7] = standard assay, 5 mM MgCl2, read-out: IC50
# T1 sequence (P9WFX1 whole entry): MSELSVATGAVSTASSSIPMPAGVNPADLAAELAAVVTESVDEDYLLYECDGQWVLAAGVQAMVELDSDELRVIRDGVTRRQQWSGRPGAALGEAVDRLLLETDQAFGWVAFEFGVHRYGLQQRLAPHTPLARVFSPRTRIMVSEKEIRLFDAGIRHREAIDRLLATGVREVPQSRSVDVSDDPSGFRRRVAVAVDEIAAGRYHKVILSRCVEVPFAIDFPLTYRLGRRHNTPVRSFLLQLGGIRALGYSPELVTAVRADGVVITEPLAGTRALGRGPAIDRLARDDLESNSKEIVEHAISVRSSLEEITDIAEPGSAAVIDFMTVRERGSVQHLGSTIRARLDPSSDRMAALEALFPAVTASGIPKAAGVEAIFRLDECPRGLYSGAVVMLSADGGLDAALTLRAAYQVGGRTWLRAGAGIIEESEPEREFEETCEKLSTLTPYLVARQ
compound,measurement,setting,value
O=C(O)c1ccc(-c2cccc(C(F)(F)F)c2)o1 [Compound 1],remaining activity at 100 µM,recombinant MbtI [1]; 5 mM MgCl2,42 ± 6.3%
"O=C(O)c1ccc(-c2cccc(Cl)c2)o1 [Compound 2, 5-(3-Chlorophenyl)furan-2-carboxylic Acid]",melting point,,187 °C (dec.)
same,remaining activity at 100 µM,recombinant MbtI [1]; 5 mM MgCl2,102 ± 17.8%
O=C(O)c1ccc(-c2ccc(C(F)(F)F)cc2C(F)(F)F)o1 [II],MIC99,M. tuberculosis H37Rv [2],250 µM
"NS(=O)(=O)c1cccc(-c2ccc(C(=O)O)o2)c1 [Compound 8, 5-(3-Sulfamoylphenyl)furan-2-carboxylic Acid]",remaining activity at 100 µM,recombinant MbtI [1]; 5 mM MgCl2,28.6 ± 6.8%
O=C(O)c1ccc(-c2ccc([N+](=O)[O-])cc2)o1 [I],IC50,recombinant MbtI [3]; previous leads,7.6 ± 1.6 µM
same,MIC99,M. tuberculosis H37Rv [2],156 µM
"N#Cc1cccc(-c2ccc(C(N)=O)o2)c1 [Compound 11, 5-(3-Cyanophenyl)furan-2-carboxamide]",melting point,,202 °C
same,IC50,recombinant MbtI [1]; [7],17.3 ± 1.9 µM
"N#Cc1cccc(-c2ccc(C(=O)O)o2)c1 [Compound 10, 5-(3-Cyanophenyl)furan-2-carboxylic Acid]",MIC99,M. tuberculosis H37Rv [4],250 µM
same,IC50,"recombinant MbtI [1]; 0.1 mg/mL BSA, PAINS control, read-out: IC50 in the presence of BSA",6.1 ± 0.9 µM
same,IC50,"recombinant MbtI [1]; 1 mM MgCl2, Figure 5B, x-axis [10] (μM), read-out: IC50 at 1 mM MgCl2",9.8 ± 1.3 µM
same,IC50,"recombinant MbtI [1]; 5 mM MgCl2, Figure 5B, x-axis [10] (μM), read-out: IC50 at 5 mM MgCl2",11.4 ± 2 µM
same,IC50,"recombinant MbtI [1]; 0.01% (v/v) Triton X-100, PAINS control, read-out: IC50 in the presence of Triton X-100",5.8 ± 1.2 µM
same,IC50,"recombinant MbtI [1]; 25 mM MgCl2, Figure 5B, x-axis [10] (μM), read-out: IC50 at 25 mM MgCl2",14.2 ± 1.1 µM
same,IC50,"recombinant MbtI [1]; 100 mM DTT, PAINS control, read-out: IC50 in the presence of DTT",7.2 ± 1.1 µM
same,IC50,"recombinant MbtI [1]; IC50, standard assay, 5 mM MgCl2",6.3 ± 0.9 µM
same,remaining activity at 100 µM,recombinant MbtI [1]; 5 mM MgCl2,3.1 ± 1%
same,IC50,recombinant MbtI [1]; [7],~6 µM
same,mode of inhibition (kinetic analysis),recombinant MbtI [1]; steady-state kinetics toward chorismic acid,competitive inhibitor
same,Ki,"recombinant MbtI [1]; steady-state kinetics toward chorismic acid, competitive inhibition",4.2 µM and 4 µM
same,siderophore concentration (Universal CAS assay and quantification of mycobactins),M. bovis BCG [5],siderophore concentration decreased at higher concentrations of the compound
same,IC50,in vitro,> 100 µM
same,MIC99,M. bovis BCG [6],250 µM
"O=C(O)c1ccc(-c2cccc([N+](=O)[O-])c2)o1 [NO2, 5-(3-nitrophenyl)furan-2-carboxylic acid]",inhibitory activity,recombinant MbtI [3]; at a concentration of 100 μM,~50%
"O=C(O)c1ccc(-c2cccc(O)c2)o1 [Compound 3, 5-(3-Hydroxyphenyl)furan-2-carboxylic Acid]",melting point,,170 °C
same,remaining activity at 100 µM,recombinant MbtI [1]; 5 mM MgCl2,70.4 ± 21.8%
"Nc1cccc(-c2ccc(C(=O)O)o2)c1 [Compound 5, 5-(3-Aminophenyl)furan-2-carboxylic Acid]",melting point,,225 °C (dec.)
same,remaining activity at 100 µM,recombinant MbtI [1]; 5 mM MgCl2,65.8 ± 9.6%
"CNC(=O)c1cccc(-c2ccc(C(=O)O)o2)c1 [Compound 7, 5-(3-(Methylcarbamoyl)phenyl)furan-2-carboxylic Acid]",melting point,,159 °C
same,remaining activity at 100 µM,recombinant MbtI [1]; 5 mM MgCl2,84 ± 9.1%
"Cc1cccc(-c2ccc(C(=O)O)o2)c1 [Compound 4, 5-(m-Tolyl)furan-2-carboxylic Acid]",melting point,,147 °C
same,remaining activity at 100 µM,recombinant MbtI [1]; 5 mM MgCl2,104 ± 4.8%
"O=C(O)c1cccc(-c2ccc(C(=O)O)o2)c1 [Compound 9, 5-(3-Carboxyphenyl)furan-2-carboxylic Acid]",remaining activity at 100 µM,recombinant MbtI [1]; 5 mM MgCl2,27.2 ± 4.5%
"NC(=O)c1cccc(-c2ccc(C(=O)O)o2)c1 [Compound 6, 5-(3-Carbamoylphenyl)furan-2-carboxylic Acid]",remaining activity at 100 µM,recombinant MbtI [1]; 5 mM MgCl2,20.9 ± 4.3%
same,IC50,recombinant MbtI [1]; [7],31 µM and 31.4 µM
